Molecular target: T1, Proto-oncogene tyrosine-protein kinase Src (Homo sapiens, UniProt P12931)
Assay: (§1) Inhibition of Src protein tyrosine kinase
Conditions: not given

T1 sequence (P12931 2-536 limits assumed): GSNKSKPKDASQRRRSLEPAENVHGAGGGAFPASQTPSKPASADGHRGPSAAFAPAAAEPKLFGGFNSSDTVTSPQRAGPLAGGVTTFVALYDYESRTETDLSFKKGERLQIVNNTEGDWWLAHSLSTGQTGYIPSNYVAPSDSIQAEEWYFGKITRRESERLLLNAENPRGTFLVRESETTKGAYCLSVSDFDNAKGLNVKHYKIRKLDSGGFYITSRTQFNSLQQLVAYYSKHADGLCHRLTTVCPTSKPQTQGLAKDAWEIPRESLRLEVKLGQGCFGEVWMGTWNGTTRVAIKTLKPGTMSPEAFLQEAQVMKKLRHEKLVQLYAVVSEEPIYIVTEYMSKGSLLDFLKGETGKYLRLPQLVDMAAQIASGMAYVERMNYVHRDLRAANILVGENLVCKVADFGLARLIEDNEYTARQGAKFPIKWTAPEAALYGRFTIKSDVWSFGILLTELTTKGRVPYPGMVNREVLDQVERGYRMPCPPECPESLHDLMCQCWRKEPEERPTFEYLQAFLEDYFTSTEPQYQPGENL

COCCOc1cc2c(cc1OC)Cc1c(Nc3ccc(Cl)cc3Cl)ncnc1N2 was tested. Which IC50 did it give?
Its IC50 is 16 nM.

For COCCOc1cc2c(cc1OC)Nc1ncnc(Nc3cc(OC)c(Cl)cc3Cl)c1C2, which IC50 is on record?
The IC50 was 9.8 nM.

How did the IC50 turn out when COc1cc(Nc2ncnc3nc4cc(OC)c(OC)cc4cc23)c(Cl)cc1Cl was run?
Its IC50 is over 10000 nM.

Which IC50 does the source give for COc1cc(Nc2c(C#N)cnc3cc(OC)c(OC)cc23)c(Cl)cc1Cl here?
The IC50 was 4.3 nM.

Which IC50 does the source give for COCCOc1cc2c(cc1OC)Cc1c(Nc3cc(OC)c(Cl)cc3Cl)ncnc1N2 here?
The IC50 was 2.3 nM.

COc1cc2ncc(C#N)c(Nc3ccc(Cl)cc3Cl)c2cc1OC was tested. Which IC50 did it give?
The IC50 was 30 nM.

COc1cc(Nc2ncnc3c2Cc2cc(OC)c(OC)cc2N3)c(Cl)cc1Cl was tested. Which IC50 did it give?
The IC50 was 3.3 nM.

Molecular target: T1, Proto-oncogene tyrosine-protein kinase Src
Assay: as §1
Conditions: concentration not given here

Which inhibition does the source give for COCCOc1cc2nc3ncnc(Nc4cc(OC)c(Cl)cc4Cl)c3cc2cc1OC here?
Its inhibition is 35%.

Source: ChEMBL document CHEMBL1136195, “Inhibition of Src kinase activity by 4-anilino-5,10-dihydro-pyrimido[4,5-b]quinolines” (Bioorg Med Chem Lett, 2003)
